In US10125138B2, “Triazolotriazinone derivatives having activity a s herbicides” (Syngenta Participations AG, priority 2015, dated 2018):

Assays:
Assay type in all cases: in vivo
Details in all cases: 1000 g/h, evaluated after 13 days, five point scale
Solanum nigrum (SOLNI) [1] = assay: Post-emergence glasshouse herbicide test, Solanum nigrum
In short: (§1)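 Score out of five (1=0-19% through 5=80-100% damage), read 13 days post-application. Plants in standard soil received 1000 g/h in acetone/water with 0.5% Tween 20, pre-emergence at day 1 or post-emergence at day 8.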

Solanum nigrum (SOLNI) [2] = assay: Pre-emergence glasshouse herbicide test, Solanum nigrum
In short: as §1

Lolium perenne (LOLPE) [3] = assay: Post-emergence glasshouse herbicide test, Lolium perenne
Lolium perenne (LOLPE) [4] = assay: Pre-emergence glasshouse herbicide test, Lolium perenne
[5] = test system: Echinochloa crus-galli (ECHCG); assay: Post-emergence glasshouse herbicide test, Echinochloa crus-galli
Setaria faberi (SETFA) [6] = assay: Post-emergence glasshouse herbicide test, Setaria faberi
[7] = test system: Amaranthus retoflexus (AMARE); assay: Pre-emergence glasshouse herbicide test, Amaranthus retoflexus
Setaria faberi (SETFA) [8] = assay: Pre-emergence glasshouse herbicide test, Setaria faberi
[9] = test system: Ipomoea hederacea (IPOHE); assay: Pre-emergence glasshouse herbicide test, Ipomoea hederacea
[10] = test system: Echinochloa crus-galli (ECHCG); assay: Pre-emergence glasshouse herbicide test, Echinochloa crus-galli
[11] = test system: Ipomoea hederacea (IPOHE); assay: Post-emergence glasshouse herbicide test, Ipomoea hederacea
[12] = test system: Amaranthus retoflexus (AMARE); assay: Post-emergence glasshouse herbicide test, Amaranthus retoflexus

Compound: CCCn1nnnc1NC(=O)c1nn2cnn(-c3ccc(C(F)(F)F)cc3)c2nc1=O [Compound 1.043]
- percentage damage caused to the plant, POST Application SOLNI (Solanum nigrum (SOLNI) [1]): 5 (5=80-100%)
- percentage damage caused to the plant, PRE Application SOLNI (Solanum nigrum (SOLNI) [2]): 5 (5=80-100%)
- percentage damage caused to the plant, POST Application LOLPE (Lolium perenne (LOLPE) [3]): 3 (3=40-59%)
- percentage damage caused to the plant, PRE Application LOLPE (Lolium perenne (LOLPE) [4]): 3 (3=40-59%)
- percentage damage caused to the plant, POST Application ECHCG [5]: 1 (1=0-19%)
- percentage damage caused to the plant, POST Application SETFA (Setaria faberi (SETFA) [6]): 4 (4=60-79%)
- percentage damage caused to the plant, PRE Application AMARE [7]: 4 (4=60-79%)
- percentage damage caused to the plant, PRE Application SETFA (Setaria faberi (SETFA) [8]): 5 (5=80-100%)
- percentage damage caused to the plant, PRE Application IPOHE [9]: 3 (3=40-59%)
- percentage damage caused to the plant, PRE Application ECHCG [10]: 2 (2=20-39%)
- percentage damage caused to the plant, POST Application IPOHE [11]: 4 (4=60-79%)
- percentage damage caused to the plant, POST Application AMARE [12]: 5 (5=80-100%)

Compound: CCCCn1nnnc1NC(=O)c1nn2cnn(-c3ccc(C(F)(F)F)cc3)c2nc1=O [Compound 1.044]
- percentage damage caused to the plant, POST Application SOLNI (Solanum nigrum (SOLNI) [1]): 5 (5=80-100%)
- percentage damage caused to the plant, PRE Application SOLNI (Solanum nigrum (SOLNI) [2]): 5 (5=80-100%)
- percentage damage caused to the plant, POST Application LOLPE (Lolium perenne (LOLPE) [3]): 3 (3=40-59%)
- percentage damage caused to the plant, PRE Application LOLPE (Lolium perenne (LOLPE) [4]): 3 (3=40-59%)
- percentage damage caused to the plant, POST Application ECHCG [5]: 1 (1=0-19%)
- percentage damage caused to the plant, POST Application SETFA (Setaria faberi (SETFA) [6]): 3 (3=40-59%)
- percentage damage caused to the plant, PRE Application AMARE [7]: 3 (3=40-59%)
- percentage damage caused to the plant, PRE Application SETFA (Setaria faberi (SETFA) [8]): 3 (3=40-59%)
- percentage damage caused to the plant, PRE Application IPOHE [9]: 3 (3=40-59%)
- percentage damage caused to the plant, PRE Application ECHCG [10]: 2 (2=20-39%)
- percentage damage caused to the plant, POST Application IPOHE [11]: 5 (5=80-100%)
- percentage damage caused to the plant, POST Application AMARE [12]: 4 (4=60-79%)

Compound: CCn1nnnc1NC(=O)c1nn2cnn(-c3ccc(C)cc3C)c2nc1=O [Compound 1.045]
- percentage damage caused to the plant, POST Application SOLNI (Solanum nigrum (SOLNI) [1]): 5 (5=80-100%)
- percentage damage caused to the plant, PRE Application SOLNI (Solanum nigrum (SOLNI) [2]): 5 (5=80-100%)
- percentage damage caused to the plant, POST Application LOLPE (Lolium perenne (LOLPE) [3]): 5 (5=80-100%)
- percentage damage caused to the plant, PRE Application LOLPE (Lolium perenne (LOLPE) [4]): 5 (5=80-100%)
- percentage damage caused to the plant, POST Application ECHCG [5]: 5 (5=80-100%)
- percentage damage caused to the plant, POST Application SETFA (Setaria faberi (SETFA) [6]): 5 (5=80-100%)
- percentage damage caused to the plant, PRE Application AMARE [7]: 5 (5=80-100%)
- percentage damage caused to the plant, PRE Application SETFA (Setaria faberi (SETFA) [8]): 4 (4=60-79%)
- percentage damage caused to the plant, PRE Application IPOHE [9]: 5 (5=80-100%)
- percentage damage caused to the plant, PRE Application ECHCG [10]: 5 (5=80-100%)
- percentage damage caused to the plant, POST Application IPOHE [11]: 5 (5=80-100%)
- percentage damage caused to the plant, POST Application AMARE [12]: 5 (5=80-100%)

Compound: Cn1ncnc1NC(=O)c1nn2cnn(-c3ccc(F)cc3)c2nc1=O [Compound 2.001]
- percentage damage caused to the plant, POST Application SOLNI (Solanum nigrum (SOLNI) [1]): 5 (5=80-100%)
- percentage damage caused to the plant, PRE Application SOLNI (Solanum nigrum (SOLNI) [2]): 5 (5=80-100%)
- percentage damage caused to the plant, POST Application LOLPE (Lolium perenne (LOLPE) [3]): 4 (4=60-79%)
- percentage damage caused to the plant, PRE Application LOLPE (Lolium perenne (LOLPE) [4]): 3 (3=40-59%)
- percentage damage caused to the plant, POST Application ECHCG [5]: 4 (4=60-79%)
- percentage damage caused to the plant, POST Application SETFA (Setaria faberi (SETFA) [6]): 5 (5=80-100%)
- percentage damage caused to the plant, PRE Application AMARE [7]: 5 (5=80-100%)
- percentage damage caused to the plant, PRE Application SETFA (Setaria faberi (SETFA) [8]): 5 (5=80-100%)
- percentage damage caused to the plant, PRE Application IPOHE [9]: 4 (4=60-79%)
- percentage damage caused to the plant, PRE Application ECHCG [10]: 5 (5=80-100%)
- percentage damage caused to the plant, POST Application IPOHE [11]: 5 (5=80-100%)
- percentage damage caused to the plant, POST Application AMARE [12]: 5 (5=80-100%)

Compound: Cn1cnnc1NC(=O)c1nn2cnn(-c3ccc(F)cc3)c2nc1=O [Compound 3.001]
- percentage damage caused to the plant, POST Application SOLNI (Solanum nigrum (SOLNI) [1]): 5 (5=80-100%)
- percentage damage caused to the plant, PRE Application SOLNI (Solanum nigrum (SOLNI) [2]): 1 (1=0-19%)
- percentage damage caused to the plant, POST Application LOLPE (Lolium perenne (LOLPE) [3]): 1 (1=0-19%)
- percentage damage caused to the plant, PRE Application LOLPE (Lolium perenne (LOLPE) [4]): 1 (1=0-19%)
- percentage damage caused to the plant, POST Application ECHCG [5]: 1 (1=0-19%)
- percentage damage caused to the plant, POST Application SETFA (Setaria faberi (SETFA) [6]): 1 (1=0-19%)
- percentage damage caused to the plant, PRE Application AMARE [7]: 3 (3=40-59%)
- percentage damage caused to the plant, PRE Application SETFA (Setaria faberi (SETFA) [8]): 1 (1=0-19%)
- percentage damage caused to the plant, PRE Application IPOHE [9]: 1 (1=0-19%)
- percentage damage caused to the plant, PRE Application ECHCG [10]: 1 (1=0-19%)
- percentage damage caused to the plant, POST Application IPOHE [11]: 1 (1=0-19%)
- percentage damage caused to the plant, POST Application AMARE [12]: 3 (3=40-59%)

Compound: O=C1CCCC(=O)C1C(=O)c1nn2cnn(-c3ccc(F)cc3)c2nc1=O [Compound 4.002]
- percentage damage caused to the plant, POST Application SOLNI (Solanum nigrum (SOLNI) [1]): 5 (5=80-100%)
- percentage damage caused to the plant, PRE Application SOLNI (Solanum nigrum (SOLNI) [2]): 5 (5=80-100%)
- percentage damage caused to the plant, POST Application LOLPE (Lolium perenne (LOLPE) [3]): 5 (5=80-100%)
- percentage damage caused to the plant, PRE Application LOLPE (Lolium perenne (LOLPE) [4]): 4 (4=60-79%)
- percentage damage caused to the plant, POST Application ECHCG [5]: 5 (5=80-100%)
- percentage damage caused to the plant, POST Application SETFA (Setaria faberi (SETFA) [6]): 5 (5=80-100%)
- percentage damage caused to the plant, PRE Application AMARE [7]: 5 (5=80-100%)
- percentage damage caused to the plant, PRE Application SETFA (Setaria faberi (SETFA) [8]): 5 (5=80-100%)
- percentage damage caused to the plant, PRE Application IPOHE [9]: 5 (5=80-100%)
- percentage damage caused to the plant, PRE Application ECHCG [10]: 5 (5=80-100%)
- percentage damage caused to the plant, POST Application IPOHE [11]: 5 (5=80-100%)
- percentage damage caused to the plant, POST Application AMARE [12]: 5 (5=80-100%)

Compound: COc1cccc(-n2ncn3nc(C(=O)C4C(=O)CCCC4=O)c(=O)nc23)c1 [Compound 4.010]
- percentage damage caused to the plant, POST Application SOLNI (Solanum nigrum (SOLNI) [1]): 5 (5=80-100%)
- percentage damage caused to the plant, PRE Application SOLNI (Solanum nigrum (SOLNI) [2]): 5 (5=80-100%)
- percentage damage caused to the plant, POST Application LOLPE (Lolium perenne (LOLPE) [3]): 4 (4=60-79%)
- percentage damage caused to the plant, PRE Application LOLPE (Lolium perenne (LOLPE) [4]): 5 (5=80-100%)
- percentage damage caused to the plant, POST Application ECHCG [5]: 5 (5=80-100%)
- percentage damage caused to the plant, POST Application SETFA (Setaria faberi (SETFA) [6]): 5 (5=80-100%)
- percentage damage caused to the plant, PRE Application AMARE [7]: 5 (5=80-100%)
- percentage damage caused to the plant, PRE Application SETFA (Setaria faberi (SETFA) [8]): 5 (5=80-100%)
- percentage damage caused to the plant, PRE Application IPOHE [9]: 5 (5=80-100%)
- percentage damage caused to the plant, PRE Application ECHCG [10]: 5 (5=80-100%)
- percentage damage caused to the plant, POST Application IPOHE [11]: 5 (5=80-100%)
- percentage damage caused to the plant, POST Application AMARE [12]: 5 (5=80-100%)
